Laboratory results taken from ChEMBL document CHEMBL1201862, “PubChem BioAssay data set” (2004).
The source made the active and inactive calls.

Experiments:
[1] = inhibitors of HIV Env-driven cell fusion, dose response, cherry-pick (AID 652057); type: functional, cell-based
[2] = inhibitors of clade B AD8 Env fusion, dose response, cell-based, cherry-pick (AID 652062); type: functional;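 note: luciferase signal from cell-cell fusion driven by HIV-1 clade B AD8 Env; potency is for inhibitors of fusion seen as a drop in luminescence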
[3] = molecular target: T1, Rac GTPase-activating protein 1 (Homo sapiens, UniProt Q9H0H5); assay: MgcRacGAP GTPase-activating activity inhibitors, confirmation, biochemical, ADP Hunter fluorescence, primary and confirmatory (AID 624330); type: functional
T1 sequence (Q9H0H5 whole entry): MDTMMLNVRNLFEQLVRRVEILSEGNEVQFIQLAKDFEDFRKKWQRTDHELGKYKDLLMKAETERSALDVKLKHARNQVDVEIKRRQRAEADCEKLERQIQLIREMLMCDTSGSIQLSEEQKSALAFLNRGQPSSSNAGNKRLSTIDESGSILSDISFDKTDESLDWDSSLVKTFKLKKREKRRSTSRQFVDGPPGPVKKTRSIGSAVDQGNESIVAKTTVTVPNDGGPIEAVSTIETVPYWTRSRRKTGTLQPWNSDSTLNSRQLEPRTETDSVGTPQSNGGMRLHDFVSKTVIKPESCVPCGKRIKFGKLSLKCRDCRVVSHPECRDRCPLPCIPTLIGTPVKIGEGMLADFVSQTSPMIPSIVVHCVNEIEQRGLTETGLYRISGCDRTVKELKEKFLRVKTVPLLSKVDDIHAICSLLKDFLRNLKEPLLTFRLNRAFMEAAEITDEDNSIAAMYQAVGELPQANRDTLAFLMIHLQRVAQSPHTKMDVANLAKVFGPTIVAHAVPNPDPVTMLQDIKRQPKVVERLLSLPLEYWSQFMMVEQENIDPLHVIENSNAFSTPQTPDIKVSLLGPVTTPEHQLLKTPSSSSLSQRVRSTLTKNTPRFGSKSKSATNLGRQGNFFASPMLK

[4] = molecular target: T2, Histone-lysine N-methyltransferase NSD2 (Homo sapiens, UniProt O96028); type: biochemical
T2 sequence (O96028 whole entry): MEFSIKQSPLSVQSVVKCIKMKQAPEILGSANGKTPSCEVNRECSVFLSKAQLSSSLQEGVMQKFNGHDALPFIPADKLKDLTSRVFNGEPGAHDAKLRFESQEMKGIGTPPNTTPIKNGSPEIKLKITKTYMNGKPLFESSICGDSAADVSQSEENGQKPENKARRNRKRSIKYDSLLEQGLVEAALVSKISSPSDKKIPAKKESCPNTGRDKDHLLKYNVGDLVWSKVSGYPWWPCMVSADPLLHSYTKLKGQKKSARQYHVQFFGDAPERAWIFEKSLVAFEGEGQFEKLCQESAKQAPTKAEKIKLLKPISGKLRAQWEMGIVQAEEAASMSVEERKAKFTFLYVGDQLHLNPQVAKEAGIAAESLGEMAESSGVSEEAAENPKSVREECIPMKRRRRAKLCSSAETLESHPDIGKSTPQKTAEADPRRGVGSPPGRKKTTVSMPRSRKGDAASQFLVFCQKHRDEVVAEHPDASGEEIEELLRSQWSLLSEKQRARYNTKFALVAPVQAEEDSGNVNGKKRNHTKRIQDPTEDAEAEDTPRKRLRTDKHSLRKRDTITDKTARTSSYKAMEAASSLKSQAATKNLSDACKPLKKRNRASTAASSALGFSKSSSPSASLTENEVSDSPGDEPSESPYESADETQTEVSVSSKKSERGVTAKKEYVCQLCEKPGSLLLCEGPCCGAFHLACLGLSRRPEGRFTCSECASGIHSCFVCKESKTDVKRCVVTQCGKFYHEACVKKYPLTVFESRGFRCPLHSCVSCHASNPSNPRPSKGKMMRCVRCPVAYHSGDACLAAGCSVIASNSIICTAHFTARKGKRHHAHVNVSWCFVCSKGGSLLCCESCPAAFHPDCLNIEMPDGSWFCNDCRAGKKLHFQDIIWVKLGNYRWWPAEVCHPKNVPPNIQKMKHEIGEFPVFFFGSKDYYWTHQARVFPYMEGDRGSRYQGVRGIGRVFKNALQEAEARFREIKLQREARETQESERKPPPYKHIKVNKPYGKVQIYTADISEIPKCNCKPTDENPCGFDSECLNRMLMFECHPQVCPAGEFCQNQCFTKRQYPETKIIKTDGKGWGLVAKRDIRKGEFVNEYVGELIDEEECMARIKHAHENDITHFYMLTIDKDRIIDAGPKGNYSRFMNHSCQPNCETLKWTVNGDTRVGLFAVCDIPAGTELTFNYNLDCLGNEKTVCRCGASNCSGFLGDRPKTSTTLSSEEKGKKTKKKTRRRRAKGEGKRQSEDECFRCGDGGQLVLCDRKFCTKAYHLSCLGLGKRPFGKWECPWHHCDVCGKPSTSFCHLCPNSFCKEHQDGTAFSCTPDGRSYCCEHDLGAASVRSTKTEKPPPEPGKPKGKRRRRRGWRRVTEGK

Beta-galactosidase = Beta-galactosidase (Escherichia coli, UniProt Q8VNN2); assay: PubChem AID 485352; type: functional
[5] = molecular target: T3, Type-1 angiotensin II receptor (Homo sapiens, UniProt P30556); assay: AT1 receptor antagonists, dose response, selectivity assay for APJ receptor antagonist project, cell-based, uHTS hits (AID 463214); type: functional;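 note: antagonist potency against angiotensin II stimulated AT1 response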
T3 sequence (P30556 whole entry): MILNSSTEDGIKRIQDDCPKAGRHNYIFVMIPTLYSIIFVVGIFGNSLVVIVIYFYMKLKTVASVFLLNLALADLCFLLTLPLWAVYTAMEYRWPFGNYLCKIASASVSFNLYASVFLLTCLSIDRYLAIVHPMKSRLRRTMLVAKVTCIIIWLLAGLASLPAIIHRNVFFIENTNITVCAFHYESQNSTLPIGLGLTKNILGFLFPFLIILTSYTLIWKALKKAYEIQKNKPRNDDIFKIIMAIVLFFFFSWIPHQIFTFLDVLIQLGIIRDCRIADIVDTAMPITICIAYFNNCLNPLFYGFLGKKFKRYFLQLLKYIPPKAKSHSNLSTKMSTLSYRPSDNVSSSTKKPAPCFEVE

[6] = molecular target: T4, Polyadenylate-binding protein 1 (Homo sapiens, UniProt P11940); assay: PABP1 MLLE–PAM2 interaction inhibitors, dose response, miRNA deadenylation inhibitor project, biochemical, fluorescence polarization, Cy5-PAM2 peptide, secondary (AID 602260); type: functional; conditions: read-out: IC50_Mean
[7] = molecular target: T4, Polyadenylate-binding protein 1; assay: PABP1 MLLE–PAM2 binding inhibitor potency, dose response, biochemical, fluorescence polarization, FITC-PAM2 peptide (AID 602259); type: functional; conditions: read-out: IC50_Mean
Leucine aminopeptidase = molecular target: T5, Leucine aminopeptidase (Plasmodium falciparum 3D7, UniProt Q8IL11); assay: P. falciparum M17LAP inhibitors, primary screen, biochemical, fluorogenic H-Leu-NHMec substrate, 1536-well (AID 1619); type: functional
T5 sequence (Q8IL11 whole entry): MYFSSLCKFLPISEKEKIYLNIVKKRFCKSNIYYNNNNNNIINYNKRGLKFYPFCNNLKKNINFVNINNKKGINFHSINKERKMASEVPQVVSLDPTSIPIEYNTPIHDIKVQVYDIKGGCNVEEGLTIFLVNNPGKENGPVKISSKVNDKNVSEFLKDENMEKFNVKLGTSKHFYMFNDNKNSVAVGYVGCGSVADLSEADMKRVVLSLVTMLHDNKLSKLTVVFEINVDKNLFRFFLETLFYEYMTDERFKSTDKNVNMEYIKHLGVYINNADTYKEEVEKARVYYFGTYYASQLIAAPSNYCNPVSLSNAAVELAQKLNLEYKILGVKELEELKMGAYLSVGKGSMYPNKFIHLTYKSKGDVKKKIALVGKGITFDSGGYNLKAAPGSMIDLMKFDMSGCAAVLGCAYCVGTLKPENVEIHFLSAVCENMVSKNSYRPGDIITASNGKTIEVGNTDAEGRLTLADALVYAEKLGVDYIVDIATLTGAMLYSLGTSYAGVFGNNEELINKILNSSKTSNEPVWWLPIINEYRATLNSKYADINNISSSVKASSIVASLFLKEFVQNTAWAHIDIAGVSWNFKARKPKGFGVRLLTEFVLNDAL

[8] = molecular target: T6, Calpain-2 catalytic subunit (Sus scrofa, UniProt P43367); assay: pig calpain II inhibitor potency, dose response, biochemical, fluorogenic peptide substrate (AID 1420); type: functional
T6 sequence (P43367 whole entry): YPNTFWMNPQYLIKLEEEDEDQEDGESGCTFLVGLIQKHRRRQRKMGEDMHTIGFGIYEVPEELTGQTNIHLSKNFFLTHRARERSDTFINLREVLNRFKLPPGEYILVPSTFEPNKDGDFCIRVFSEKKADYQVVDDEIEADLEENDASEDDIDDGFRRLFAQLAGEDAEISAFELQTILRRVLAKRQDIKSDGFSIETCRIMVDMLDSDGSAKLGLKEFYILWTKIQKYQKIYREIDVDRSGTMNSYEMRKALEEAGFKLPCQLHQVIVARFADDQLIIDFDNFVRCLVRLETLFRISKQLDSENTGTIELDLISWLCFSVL

[9] = inhibitors of Vif binding to APOBEC3G peptide, primary screen, biochemical, TR-FRET, GST-Vif 1-94, biotin-A3G peptide, dose response retest (AID 1117319); type: functional;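 note: TR-FRET signal of purified GST-Vif binding a biotinylated A3G peptide; inhibitors lower the FRET signal by blocking Vif and A3G binding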
[10] = P. falciparum 3D7-ScDHODH growth inhibitors, dose response, SYBR Green, dry powder samples (AID 1159570); type: functional, cell-based;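 note: parasite growth measured after 72 hours of compound exposure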
[11] = P. falciparum Dd2 growth inhibitors, dose response, SYBR Green, cherry-picked samples (AID 1159567); type: functional, cell-based
[12] = P. falciparum Dd2 growth inhibitors, dose response, SYBR Green, dry powder samples (AID 1159566); type: functional, cell-based;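 note: potency for growth inhibition with lower SYBR green DNA signal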
[13] = P. falciparum ATP4 D1247Y mutant growth inhibitors, dose response, NITD609-resistant line, SYBR Green, dry powder (AID 1159571); type: functional, cell-based;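 note: parasites synchronized at ring stage by sorbitol before testing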

T4 sequence (P11940 whole entry): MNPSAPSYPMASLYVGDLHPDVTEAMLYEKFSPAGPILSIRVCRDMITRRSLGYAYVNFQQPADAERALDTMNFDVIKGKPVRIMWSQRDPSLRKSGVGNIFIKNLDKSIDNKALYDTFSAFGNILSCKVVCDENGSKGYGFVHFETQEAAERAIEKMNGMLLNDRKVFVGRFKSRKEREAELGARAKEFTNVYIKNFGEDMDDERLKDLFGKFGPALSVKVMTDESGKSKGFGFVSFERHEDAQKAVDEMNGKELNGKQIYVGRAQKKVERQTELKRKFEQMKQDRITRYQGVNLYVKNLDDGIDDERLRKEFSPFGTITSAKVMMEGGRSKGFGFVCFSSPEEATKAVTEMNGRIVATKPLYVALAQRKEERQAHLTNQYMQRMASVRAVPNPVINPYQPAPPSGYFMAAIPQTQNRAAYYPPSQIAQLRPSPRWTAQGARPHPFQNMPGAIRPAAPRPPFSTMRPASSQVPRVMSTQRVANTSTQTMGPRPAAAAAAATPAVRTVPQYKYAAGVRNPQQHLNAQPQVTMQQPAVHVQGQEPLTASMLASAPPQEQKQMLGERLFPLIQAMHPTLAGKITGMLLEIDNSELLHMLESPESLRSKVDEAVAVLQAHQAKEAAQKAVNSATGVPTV
Sequence of Beta-galactosidase (Q8VNN2 whole entry): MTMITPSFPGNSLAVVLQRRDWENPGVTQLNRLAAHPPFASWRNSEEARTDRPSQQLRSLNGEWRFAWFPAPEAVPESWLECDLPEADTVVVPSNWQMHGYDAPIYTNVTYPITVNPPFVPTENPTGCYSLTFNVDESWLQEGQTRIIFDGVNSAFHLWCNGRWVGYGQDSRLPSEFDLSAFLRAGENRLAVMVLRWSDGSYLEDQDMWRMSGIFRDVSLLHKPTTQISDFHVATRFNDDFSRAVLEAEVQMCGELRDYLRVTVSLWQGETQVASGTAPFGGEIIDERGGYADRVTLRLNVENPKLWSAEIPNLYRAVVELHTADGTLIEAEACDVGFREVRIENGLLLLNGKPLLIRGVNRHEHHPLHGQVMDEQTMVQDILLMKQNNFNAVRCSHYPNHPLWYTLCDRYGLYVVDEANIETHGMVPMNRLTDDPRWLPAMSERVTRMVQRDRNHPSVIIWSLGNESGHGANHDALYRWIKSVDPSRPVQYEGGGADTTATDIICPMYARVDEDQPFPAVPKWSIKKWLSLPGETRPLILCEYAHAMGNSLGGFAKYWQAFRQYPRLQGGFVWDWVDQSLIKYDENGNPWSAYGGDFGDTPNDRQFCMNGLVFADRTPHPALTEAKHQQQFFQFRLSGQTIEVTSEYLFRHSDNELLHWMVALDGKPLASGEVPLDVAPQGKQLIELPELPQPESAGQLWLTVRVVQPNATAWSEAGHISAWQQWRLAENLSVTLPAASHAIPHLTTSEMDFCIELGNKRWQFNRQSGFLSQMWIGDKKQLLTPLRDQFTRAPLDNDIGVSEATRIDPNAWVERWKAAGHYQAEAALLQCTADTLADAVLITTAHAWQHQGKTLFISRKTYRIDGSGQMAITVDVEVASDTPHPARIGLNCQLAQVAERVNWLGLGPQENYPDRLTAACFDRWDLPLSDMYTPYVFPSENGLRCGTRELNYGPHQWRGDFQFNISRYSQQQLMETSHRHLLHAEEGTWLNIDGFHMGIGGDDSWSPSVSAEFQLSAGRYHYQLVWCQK

Compound: CC(c1nc(O)c2ccccc2n1)N(C)CCOc1ccc(Cl)cc1 (stereo not drawn)
- AC50 [1]: 57.3 µM (active)
- AC50 [2]: 28.3 µM (active)

Compound: N=C1/C(=C\c2ccc(O)c(O)c2)C(=O)N=C2SC(CC(=O)N3CCOCC3)=NN12
- IC50 [3]: 63.6 µM (active)
- AC50 [4]: 1.79 µM (active)

Compound: C/C(=N\NC(=S)Nc1cccc(C)c1)c1ccccc1
- EC50 (Beta-galactosidase): > 40 µM (inactive)
- IC50 [5]: > 40 µM (not active)
- IC50 [6]: > 66 µM (inactive)
- IC50 [7]: > 66 µM (inactive)

Compound: O=C(Nc1nc(=O)[nH]s1)c1ccccc1
- IC50 (Leucine aminopeptidase): 18.1 µM (active)
- IC50 [8]: > 50 µM (not active)

Compound: CC1SC(N/N=C/c2ccco2)=NC1=O (stereo not drawn)
- IC50 [9]: > 100 µM (active)

Compound: O=C(N/N=C/c1cc(Br)cs1)c1c[nH]c2ccccc12
- IC50 [8]: 4.39 µM (not active)

Compound: Cc1ccc(S(=O)(=O)N(C)C[C@@H]2OCc3ccccc3-c3c(n(C)c4ccccc34)C(=O)N([C@@H](C)CO)C[C@@H]2C)cc1
- AC50 [10]: 0.427 µM (active)
- AC50 [11]: 0.611 µM (active)
- AC50 [12]: 0.346 µM (active)
- AC50 [13]: 0.291 µM (active)

Compound: COc1cc(C(=S)N2CCOCC2)ccc1O [VANITIOLIDE]
- IC50 [6]: > 66 µM (inactive)
- IC50 [7]: > 66 µM (inactive)
